# Source: article PMC11558097, “Enhanced Tumor‐Targeted Delivery of Arginine‐Rich Peptides via a Positive Feedback Loop Orchestrated by Piezo1/integrin β1 Signaling Axis” (Advanced Science, 2024)
# Ends that are not written are not given here.
# B1: hendeca-arginine peptide (R11), GRRRRRRRRRRR-TRITC (peptide)
# peptide: GRRRRRRRRRRR-{TRITC}
# notes: designed cell-penetrating peptide: glycine followed by 11 arginines; also called R11 peptides; arginine-rich peptides; source: synthetic peptide, synthesized and purified by GL Biochem Ltd (Shanghai, China)
# Legend:
# T24 cells [1] = assay: Antibody block assay (integrin α2β1 antibody), R11 uptake by flow cytometry; assay type: cell-based, human; conditions: Anti-integrin α2β1 5 ug/mL for 2 h
# Protocol: (§1) Antibody integrin α2β1 (ab30483) used for blocking the binding motif was purchased from ABCAM. Cells were planted in the 6‐well plates and treated with Anti‐integrin α2β1 (5 ug/mL). After incubation for 2 h, the cells were treated with R11 peptides and collected. Then, the cells were trypsinized, washed, and suspended in 1 mL PBS. The fluorescence intensity of 10 000 cells was measured using flow cytometer.
# 253J cells = assay: as above; assay type: cell-based, human; conditions: Anti-integrin α2β1 5 ug/mL for 2 h
# Protocol: as §1
# [2] = tested on: BC cell lines (5637, T24, and 253J); assay: Flow cytometry and fluorescence microscopy, uptake of R11 in BC cell lines versus control cells; assay type: cell-based, human; conditions: BC cell lines versus Raw264.7 and SV-HUC control cells, R11 100 nM
# Protocol: (§2) Flow cytometry was used to measure the fluorescence signal. Cells were seeded in a 6‐well plate at 1.0 × 10^5 cells per well and treated with R11 peptides and a series of inhibitors for 4 h, including NaN3 (active uptake inhibitor, 20 mM), methyl‐β‐cyclodextrin (MβCD: lipid raft‐mediated endocytosis inhibitor, 5 µg mL^−1), EIPA (macropinocytosis inhibitor, […]), Chlorpromazine (CPZ: clathrin‐mediated endocytosis, 5 µg mL^−1) or Dynasore (dynamin‐dependent endocytosis inhibitor, […]) in serum‐free media at 37 °C or 4 °C for 4 h, respectively. Then, the cells were trypsinized, washed, and suspended in 1 mL PBS. The fluorescence intensity of 10 000 cells was measured using a BD LSR II flow cytometer.
# Piezo1 in T24 cells = assay: Flow cytometry of Ca2+ signal and R11 uptake with Piezo1 agonist or inhibitor; assay type: cell-based, human; conditions: for effect on R11 uptake efficiency and Ca2+ release: T24 cells exposed to R11, Yoda1 10 nM, GsMTx4 2.5 nM
# bladder tumors = assay: Mouse orthotopic BC model, IVIS imaging after intravesical instillation; assay type: in vivo; conditions: female nude mice, orthotopic integrin β1-GFP BC model
# Protocol: All the animal experiments were carried out following guidelines approved by the ethics committee of Xi'an Jiaotong University, Xi'an, China. Female nude mice aged 4–6 weeks were randomly sorted. After gaseous anesthesia, an intravenous indwelling needle lubricated with paraffin cotton was inserted into the bladder and fixed well. Then, the urine was removed, and the bladder was rinsed with PBS 3 times. Next, the abdominal skin was disinfected by iodine tincture and cut open for approximately 1 cm. GFP‐integrin β1 cells (1 × 10^6/mL) were injected into the bladder wall with an insulin needle under direct visualization. Last, the abdominal wall was stitched and bound with gauze. After 7 days, the effect of bladder tumor implantation was observed. After intravesical perfusion of R11 peptides or gold nanoparticles, tumor‐bearing mice were detected using an in vivo imaging system/IVIS (AniView) to take images. In addition, frozen sections of the tumors were stained with DAPI, and the fluorescence of each section of the tumor was analyzed by fluorescence microscopy.
# T24 cells [3] = assay: Cellular uptake pathways, flow cytometry with endocytosis inhibitors; assay type: cell-based, human; conditions: serum-free media
# Protocol: as §2
# [4] = molecular target: T1, integrin β1 (standard of an integrin β1 ELISA kit) (UniProt P05556 21-728); assay: ELISA; integrin β1 standards (0.5 µg/mL) added to the microplate wells of an integrin β1 ELISA kit, in triplicate; R11-TRITC serially diluted in PBS (0.001-10 000 nM), 2 h at 37 °C; washed; fluorescence of the bound peptide read on a microplate reader; conditions: both partners purified
# T1 construct: integrin β1 (ITGB1), standard protein of a commercial ELISA kit; also called ITGB1; integrin β1 standards; source: bought: standard of the integrin β1 ELISA kit, Shanghai Westang Bio-Tech CO., LTD
# T1 sequence (P05556 21-728): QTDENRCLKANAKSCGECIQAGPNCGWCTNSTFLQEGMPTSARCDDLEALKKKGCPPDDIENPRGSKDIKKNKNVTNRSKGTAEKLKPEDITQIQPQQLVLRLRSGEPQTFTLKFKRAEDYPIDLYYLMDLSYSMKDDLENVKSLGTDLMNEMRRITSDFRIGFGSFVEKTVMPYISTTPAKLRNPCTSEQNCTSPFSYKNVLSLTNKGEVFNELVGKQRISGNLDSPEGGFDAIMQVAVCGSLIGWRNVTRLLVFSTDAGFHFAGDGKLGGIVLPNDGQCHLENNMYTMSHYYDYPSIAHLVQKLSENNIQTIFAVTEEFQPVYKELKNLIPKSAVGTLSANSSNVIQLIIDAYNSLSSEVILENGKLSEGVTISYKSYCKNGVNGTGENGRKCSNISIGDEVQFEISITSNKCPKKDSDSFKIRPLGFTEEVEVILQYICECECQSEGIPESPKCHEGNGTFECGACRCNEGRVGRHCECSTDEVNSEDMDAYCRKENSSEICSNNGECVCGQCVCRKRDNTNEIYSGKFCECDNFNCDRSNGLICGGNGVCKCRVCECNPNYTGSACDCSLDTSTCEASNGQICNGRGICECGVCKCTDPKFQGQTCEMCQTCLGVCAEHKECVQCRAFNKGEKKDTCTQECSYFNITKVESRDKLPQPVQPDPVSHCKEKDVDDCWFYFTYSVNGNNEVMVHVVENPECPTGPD
molecule,measurement,setting,value
"N=C(N)NCCC[C@H](NC(=O)[C@H](CCCNC(=N)N)NC(=O)[C@H](CCCNC(=N)N)NC(=O)[C@H](CCCNC(=N)N)NC(=O)[C@H](CCCNC(=N)N)NC(=O)[C@H](CCCNC(=N)N)NC(=O)[C@H](CCCNC(=N)N)NC(=O)[C@H](CCCNC(=N)N)NC(=O)[C@H](CCCNC(=N)N)NC(=O)[C@H](CCCNC(=N)N)NC(=O)[C@H](CCCNC(=N)N)NC(=O)CN)C(=O)O [R11, hendeca‐arginine peptide]",uptake of R11 peptides after blocking integrin α2β1,T24 cells [1],completely inhibited
same,uptake of R11 peptides after blocking integrin α2β1,253J cells,completely inhibited
same,fluorescence signal of R11 (uptake),[2],stronger fluorescence signal in BC cell lines compared to control cells
same,Ca2+ signal,"Piezo1 in T24 cells; T24 cells, varying R11 concentrations",increased consistently with the concentration of R11 peptides
same,identification of bladder tumors in vivo (IVIS),bladder tumors,successfully identified bladder tumors in vivo but not adjacent kidney tissues
same,uptake of R11 with Dynasore,"T24 cells [3]; Dynasore 80 µmol mL^−1, 4 h",inhibited uptake partly
same,uptake of R11 with EIPA,"T24 cells [3]; EIPA (macropinocytosis inhibitor) 10 µmol mL^−1, 4 h",suppressed nearly half
same,uptake of R11 with NaN3 and 4 °C,"T24 cells [3]; NaN3 20 mM or 4 °C, 4 h",blocked
Clc1cccc(Cl)c1CSc1nnc(-c2cnccn2)s1 [Yoda1],effect on R11 uptake efficiency and Ca2+ release,Piezo1 in T24 cells,enhanced both the uptake efficiency and Ca^2+ release
GsMTx4,effect on R11 uptake efficiency and Ca2+ release,Piezo1 in T24 cells,opposite effect
B1,EC50,[4],5.97 nM
